Source: US20230218571A1 (Thiogenesis Therapeutics, Inc., priority 2020, published 2023)

Legend:
SARS-CoV-2 [1] = experiment: Single-dose/multiple dose open-label study in patients with COVID-19; type: in vivo, human; conditions: patients infected with SARS-CoV-2, end of study
Experimental: A single-dose/multiple dose, open-labeled, non-randomized, two-period study of Cysteamine-Pantetheine Disulfide (compound 1) in […] (male and female) with COVID-19 under fasting or fed conditions is performed. Prior to treatment, patients undergo screening to determine study eligibility (Day-1).
Pharmacodynamic Evaluations: SARS-CoV-2 viral load will be obtained from samples collected from Day 0 to Day 15 according to the Schedule of Events.

SARS-CoV-2 [2] = experiment: Syrian hamster SARS-CoV-2 infection model; type: in vivo; conditions: 60, 90 or 120 mg/kg per os once a day for 7 days
Experimental: The efficacy of cysteamine-pantetheine disulfide (compound 1) is assessed in the Syrian hamster model. Maximal clinical signs of rapid breathing, weight loss, histopathological changes from the initial exudative phase of diffuse alveolar damage with extensive apoptosis to the later proliferative phase of tissue repair, airway and intestinal involvement with virus nucleocapsid protein expression, high lung viral load, and spleen and lymphoid atrophy associated with marked cytokine activation are observed within the first week of virus challenge. The lung virus titer is between 10^5-10^7 TCID50/g. Challenged index hamsters can consistently infected naïve contact hamsters housed within the same cage, resulting in similar pathology but not weight loss. All infected hamsters can recover and develop mean serum neutralizing antibody titer ≥1:427 fourteen days post-challenge. Immunoprophylaxis with early convalescent serum can achieve significant decrease in lung viral load but not in lung pathology.
Three groups of 3 Syrian hamsters infected by SARS-CoV-2 per group receive cysteamine-pantetheine disulfide (compound 1) per os once a day for 7 days. The first group receives 60 mg/kg, second group 90 mg/kg and third group 120 mg/kg. Clinical status, biological parameters and viral load are characterized every day.

[3] = administered to fasting patients; cited from earlier work

| SMILES | risk of severe COVID-19 outcomes (pneumonitis, ARDS, respiratory failure, septic shock, organ failure, cytokine storm, death) (SARS-CoV-2 [1]) | recovery (SARS-CoV-2 [2]) | symptoms of infection (SARS-CoV-2 [2]) | viral load (SARS-CoV-2 [2]) | inter-patient variation in cysteamine plasma levels [3] |
| --- | --- | --- | --- | --- | --- |
| CC(C)(CO)[C@@H](O)C(=O)NCCC(=O)NCCSSCCN [compound 1, cysteamine-(R)-pantetheine disulfide] | lower risk | more rapid recovery | less severe symptoms of infection | lower viral load | – |
| NCCS [cysteamine, 2-aminoethanethiol] | – | – | – | – | up to four fold |
